In US5849587A, “Method of inhibiting viral replication in eukaryotic cells and of inducing apoptosis of virally-infected cells” (Cornell Research Foundation, Inc., priority 1995, dated 1998):
Entries after “also recorded” stand apart in the source; their conditions may differ.

Legend:
Deoxyhypusyl hydroxylase = biological target: T1, Deoxyhypusyl hydroxylase (Homo sapiens, UniProt Q9BU89); experiment: Cellular deoxyhypusyl hydroxylase (hypusine formation) inhibition, human B-cells and human smooth muscle cells; assay type: cell-based; conditions: for Deoxyhypusyl hydroxylase ID50 (cellular): concentration for half-maximal inhibition
T1 construct: endogenous in cells
T1 sequence (Q9BU89 1-302): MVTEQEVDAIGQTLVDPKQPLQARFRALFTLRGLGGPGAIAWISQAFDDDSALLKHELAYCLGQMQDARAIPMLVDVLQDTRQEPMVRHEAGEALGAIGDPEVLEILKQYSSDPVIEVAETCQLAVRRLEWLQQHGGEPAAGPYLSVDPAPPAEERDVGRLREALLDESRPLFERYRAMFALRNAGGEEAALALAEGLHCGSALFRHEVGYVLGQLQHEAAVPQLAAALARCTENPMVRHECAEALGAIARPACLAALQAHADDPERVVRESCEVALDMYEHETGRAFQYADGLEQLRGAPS
Description: The cell-free enzyme assay was performed to test a pilot peptidomimetic which can be equipped with hydroxypyridone warheads. The cell culture studies were performed to establish the inherent inhibitory potency of such hydroxypyridones.
DOHH Assay. The intracellular conversion of peptide-bound deoxyhypusine to peptidyl hypusine was determined after preincubation of human T lymphocyte-derived cells (i.e. ACH-2) [Clouse et al., J. Immunol. 142, 431-438 (1989), which is hereby incorporated by reference] with the hypusine inhibitors mimosine and HK-1 for 60 minutes, followed by labeling for 21 hours with ^3 H-spermidine (3.75 μCi/ml) in wells containing 3×10^6 cells suspended in 8 ml of serum-supplemented and antibiotic-containing RPMI 1640 medium. Cells were then split into two groups, one of them being harvested immediately to assess degree of DOHH inhibition, and the other harvested after transfer of the cells into inhibitor-free medium for 2 hours to measure resumption of DOHH activity. Harvesting consisted in precipitation of washed cells with 10% TCA containing 1 mM each of putrescine, spermidine, and spermine. Cellular proteins from each sample were then hydrolyzed in 6N HCl at 110° C. for 16 hours. The hydrolysate was analyzed for labeled amino acids on an amino acid analyzer by published methods [Park et al., J. Biol. Chem., 257, 7217-7222 (1982), which is hereby incorporated by reference]. The retention times of hypusine and deoxyhypusine were determined from standards. Similar studies were performed in human B-cells and human smooth muscle cells.
The concentration required for half-maximal inhibition (ID50) of the cellular enzyme activity is identified for each compound.

[1] = test system: viral Gag mRNA (Rev-dependent transcripts); experiment: Polysomal localization of viral Gag mRNA in PMA-induced ACH-2 cells; assay type: cell-based, HIV-1; conditions: 200 μM
Description: (§1) 142, 431-438 (1989), which is hereby incorporated by reference]. However, vigorous HIV-1 production by ACH-2 cells is induced by addition of the phorbol ester PMA [Pomerantz et al., Cell 61, 1271-1276 (1990) and Michael et al., J. Virol 65, 1291-1303 (1991), which are hereby incorporated by reference]. This system was selected for these experiments. Logarithmically growing ACH-2 cells, suspended at a concentration of 3×10^5 /ml, were incubated with the hypusine inhibitors mimosine and HK-1 at a final concentration of 200 μM. After 8 hours, viral replication was activated by addition of PMA to these cells and to untreated controls (100 ng/ml final PMA concentration). […] An aliquot of each fraction was analyzed by slot blotting, using the pXC-1 genomic ribosomal DNA probe from rat containing the 18S rRNA coding sequence [Rimarachin, Szabo et al., In Vitro 28A, 705-707 (1992), which is hereby incorporated by reference], to determine the location within the gradient of 18S rRNA, i.e., the distribution of polysomes vs. monosomes. […] Following electrophoresis, the radio-labeled PCR products were visualized by autoradiography according to routine techniques, and the band intensities quantified by densitometric analysis and expressed relative to total product per gradient.

GAPDH mRNA = experiment: Polysomal localization of cellular GAPDH mRNA in PMA-induced ACH-2 cells; assay type: cell-based, human; conditions: 200 μM, FIG. 6
Description: as §1

[2] = test system: HIV-1 producing ACH-2 cells; experiment: Electron microscopy of PMA-induced ACH-2 cells; assay type: cell-based, human
Description: FIGS. 11A and B show, representative ultrastructural findings observed in PMA-induced/untreated (FIG. 11A) and PMA-induced/mimosine-treated (FIG. 11B) ACH-2 cells immediately at the end of the 18-hour incubation period. […] Note, however, that such changes occur rapidly after withdrawal of the inhibitors (compare to time course detailed in FIGS. 12A and B and FIGS. 14A-H). [Magnification: 9100×].
3. Ultrastructural investigation of antiviral effect. ACH-2 cells were incubated with hypusine inhibitors (mimosine, HK-1) and induced with PMA as outlined in Example II A. Harvesting, fixation of cells, and electron microscopy were performed according to established techniques [Michael et al., J. Virol 65, 1291-1303 (1991), which is hereby incorporated by reference].

[3] = test system: deoxyhypusyl hydroxylase (DOHH); conditions: previously established, Hanauske-Abel et al.; cited from earlier work
[4] = test system: cellular deoxyhypusyl hydroxylase; conditions: Hanauske-Abel et al. 1994; cited from earlier work

SMILES | Deoxyhypusyl hydroxylase ID50 (cellular) (Deoxyhypusyl hydroxylase) | inhibition of deoxyhypusyl hydroxylase activity, i.e. hypusine formation (Deoxyhypusyl hydroxylase) | polysomal localization of viral Gag mRNA ([1]; FIG. 6) | polysomal localization of viral Gag mRNA ([1]; FIG. 6, listed as minosine) | polysomal localization of GAPDH mRNA (GAPDH mRNA) | cells with early apoptotic nuclear changes ([2]; PMA-induced ACH-2, FIG. 11B) | number of viral particles in extracellular space ([2]; PMA-induced ACH-2, end of 18-hour incubation, FIG. 11B) | ultrastructural appearance of treated cells ([2]; PMA-induced ACH-2, end of incubation, FIG. 11B) | hypusine inhibition in cell-free system [3] | inhibition of purified and cellular deoxyhypusyl hydroxylase [4]
Cc1c(O)c(=O)ccn1C [HK-1, 1,2-dimethyl-3-hydroxypyrid-4-one] | 90 |  |  |  |  |  |  |  |  | 
N[C@@H](Cn1ccc(=O)c(O)c1)C(=O)O [L-Mimosine] | 65 | efficiently inhibit deoxyhypusyl hydroxylase activity | redirects a significant portion of the Rev-dependent Gag mRNAs into the non-polysomal fractions | shifted away from the polysomal protein producing machinery into the pool of monosomal/free MRNA | did not affect the polysomal loading of cellular MRNA; also recorded: only a marginal effect on the distribution of GAPDH mRNA | about 20% | marked reduction in the number of viral particles; also recorded: prominent reduction in the number of infectious particles in the extracellular space | normal ultrastructural appearance of the treated ACH-2 cells; also recorded: still lacks overt morphological signs of cell damage | act as hypusine inhibitors in this cell-free system | inhibit purified and cellular deoxyhypusyl hydroxylase
